Reference: patent US20110076278A1 (priority 2005, published 2011)
Read-outs that look alike come from different tables or passages of the source.

Experiments:
[1] = test system: HIF-1α; assay: HIF-1α Western blot in ARPE-19 cells under hypoxia; type: cell-based, human
Experimental: Samples were fractionated on 3-8% Tris-Acetate gel (Invitrogen NUPAGE system) by sodium dodecyl sulfate (SDS)-polyacrylamide gel electropherosis and transferred onto nitrocellulose membrane. […] Anti-Beta-actin monoclonal antibody (Abcam, ab6276-100) was used at a 1:5000 dilution with a 30-minute incubation at room temperature.

[2] = test system: VEGF; assay: VEGF ELISA on supernatants of ARPE-19 cells under hypoxia; type: cell-based; details: Homo sapiens, ARPE-19, hypoxia 24 hours, read-out: IC50 VEGF expression
Experimental: (§1) ARPE-19 was cultured in DMEM/F-12 medium supplemented with 10% heat-inactivated FBS, penicillin (100 U/mL), and streptomycin (100 ug/mL). Cells were grown in incubator with humidified atmosphere containing 5% CO2 at 37° C. To induce hypoxia conditions, cells are placed in a Billups-Rothenberg modular incubator chamber and flushed with artificial atmosphere gas mixture (5% carbon dioxide, 1% oxygen, and balance nitrogen). The hypoxia chamber was then placed in a 37° C. incubator.
(§2) APRE-19 cells were plated in two 96-well plates at a confluence of 80% and cultured overnight. The next day, a series dilution of BNC4 (100, 50, 25, 12.5, 6.25, 3.13, 1.56, 0.78, 0 nM) was added into cultures. […] Supernatants were collected for ELISAs and cells were saved for MTS assay (MTS assay readouts was used in normalizing cell numbers). […] Affection curves (BNC4 on secretion of angiogenesis proteins) and their IC50s were generated by plotting the average normalized absorbance (450 nm minus 540nm) for each treatment on Y axis versus the corresponding BNC4 concentrations on X axis using software XLfit 4.1.
(§3) ELISAs were then performed on the APRE-19 cells treated with BNC4 and incubated under normal or hypoxia conditions as described above. […] Supernatants were collected for ELISAs and cells were saved for MTS assay (MTS assay readouts was used in normalizing cell numbers). […]

[3] = test system: TIMP-1; assay: TIMP-1 ELISA on supernatants of ARPE-19 cells under hypoxia; type: cell-based; details: Homo sapiens, ARPE-19, hypoxia 24 hours, read-out: IC50 TIMP-1 expression
Experimental: as §1, §2, §3

[4] = test system: angiogenin; assay: Angiogenin ELISA on supernatants of ARPE-19 cells under hypoxia; type: cell-based; details: Homo sapiens, ARPE-19, hypoxia 24 hours, read-out: IC50 angiogenin expression
Experimental: as §1, §2, §3

[5] = test system: choroidal neovascularization; assay: Choroidal neovascularization model with Alzet osmotic pump; type: in vivo; details: versus vector (vehicle) alone
[6] = test system: cancer cell lines; assay: Proliferation of cancer cell lines; type: cell-based
[7] = Serum concentration in the choroidal neovascularization experiment; type: in vivo; details: choroidal neovascularization model, Alzet osmotic pump
[8] = cited from earlier work; for max. plasma concentration: in vivo

Structure (SMILES) | inhibition of hypoxia-mediated HIF-1α induction ([1]; ARPE-19 cells, hypoxia, western blot (FIG. 1)) | potency relative to BNC1 in inhibiting HIF-1α expression ([1]; human retinal pigment epithelial cells) | IC50 [2] | IC50 [3] | IC50 [4] | area of choroidal neovascularization [5] | decrease of the concentration effective for inhibiting proliferation of cancer cells by combination [6] | serum concentration [7] | plasma half-life ([8]; human, according to the literature) | max. plasma concentration [8] | decrease of the concentration effective for inhibiting proliferation of cancer cells by combination ([6]; combination with steroid signal modulator (Casodex))
C[C@@H]1O[C@@H](O[C@@H]2C=C3CC[C@@H]4[C@H](CC[C@]5(C)[C@@H](c6ccc(=O)oc6)CC[C@]45O)[C@@]3(C)CC2)[C@H](O)[C@H](O)[C@H]1O [BNC4, proscillaridin] | inhibit hypoxia-mediated HIF-1α induction | about 10 times | 32.5 nM | 12.9 nM | 4.5 nM | reduced the area of choroidal neovascularization | 5 fold | 60 ng/mL | about 40 hours | about 0.1 μg/mL | –
C[C@@H]1O[C@@H](O[C@H]2C[C@@H](O)[C@]3(CO)[C@H]4[C@H](O)C[C@]5(C)[C@@H](C6=CC(=O)OC6)CC[C@]5(O)[C@@H]4CC[C@]3(O)C2)[C@H](O)[C@H](O)[C@H]1O [BNC1, ouabain] | – | – | – | – | – | reduced the area of choroidal neovascularization | – | 20 ng/mL | – | about 0.03 μg/mL | 5 fold
